From ChEMBL document CHEMBL1201862, “PubChem BioAssay data set” (2004) come the findings set out here.

Active and inactive are the calls of the source.

In one assay the target is Cytochrome P450 2C19 (Homo sapiens, UniProt P33261). As to the kind of experiment: Cytochrome panel assay with activity outcomes. Panel member name: p450-cyp2c19 Compounds with AC50 equal or less than 10 uM are considered active. Format: functional. The conditions noted are these: read-out: AC50.
The target of assay [1] is T1, Short transient receptor potential channel 4 (Mus musculus, UniProt Q9QUQ5).
T1 sequence (Q9QUQ5 whole entry): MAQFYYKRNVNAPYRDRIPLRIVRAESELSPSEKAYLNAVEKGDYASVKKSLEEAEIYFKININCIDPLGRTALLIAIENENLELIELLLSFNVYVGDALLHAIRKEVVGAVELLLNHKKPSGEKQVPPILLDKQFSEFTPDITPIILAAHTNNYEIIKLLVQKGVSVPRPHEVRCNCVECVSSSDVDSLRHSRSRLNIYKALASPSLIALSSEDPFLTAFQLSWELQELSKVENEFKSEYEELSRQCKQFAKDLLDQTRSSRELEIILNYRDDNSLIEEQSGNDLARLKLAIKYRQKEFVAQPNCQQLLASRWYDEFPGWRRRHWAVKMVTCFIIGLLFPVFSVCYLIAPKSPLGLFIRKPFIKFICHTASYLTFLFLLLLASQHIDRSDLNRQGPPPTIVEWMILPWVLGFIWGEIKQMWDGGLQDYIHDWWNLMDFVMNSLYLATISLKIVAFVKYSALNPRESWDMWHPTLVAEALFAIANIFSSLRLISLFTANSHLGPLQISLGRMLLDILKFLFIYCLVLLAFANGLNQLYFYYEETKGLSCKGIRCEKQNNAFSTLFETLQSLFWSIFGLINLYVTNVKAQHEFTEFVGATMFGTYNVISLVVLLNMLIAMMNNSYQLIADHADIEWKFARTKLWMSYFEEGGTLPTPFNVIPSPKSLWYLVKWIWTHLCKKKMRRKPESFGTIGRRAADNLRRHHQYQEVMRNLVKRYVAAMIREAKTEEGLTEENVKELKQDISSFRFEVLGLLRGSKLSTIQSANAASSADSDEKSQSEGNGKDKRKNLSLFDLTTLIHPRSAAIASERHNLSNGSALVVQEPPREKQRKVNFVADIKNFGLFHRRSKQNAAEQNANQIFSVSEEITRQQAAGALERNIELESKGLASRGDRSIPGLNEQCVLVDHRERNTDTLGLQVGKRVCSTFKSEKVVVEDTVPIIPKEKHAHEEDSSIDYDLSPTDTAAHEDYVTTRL
Put plainly: mouse TRPC4 channel inhibitors, dose response, cell-based, HEK293 TRPC4/mu-opioid, Fluo-4 calcium (AID 434942).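 Further: potency of inhibitors blocking the TRPC4 calcium response.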 It is filed as functional.

The target of a further assay is Cytochrome P450 2D6 (Homo sapiens, UniProt P10635).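 Further: CYP2D6 member of a cytochrome P450 panel assay.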
Chain of Cytochrome P450 2D6 (P10635 whole entry): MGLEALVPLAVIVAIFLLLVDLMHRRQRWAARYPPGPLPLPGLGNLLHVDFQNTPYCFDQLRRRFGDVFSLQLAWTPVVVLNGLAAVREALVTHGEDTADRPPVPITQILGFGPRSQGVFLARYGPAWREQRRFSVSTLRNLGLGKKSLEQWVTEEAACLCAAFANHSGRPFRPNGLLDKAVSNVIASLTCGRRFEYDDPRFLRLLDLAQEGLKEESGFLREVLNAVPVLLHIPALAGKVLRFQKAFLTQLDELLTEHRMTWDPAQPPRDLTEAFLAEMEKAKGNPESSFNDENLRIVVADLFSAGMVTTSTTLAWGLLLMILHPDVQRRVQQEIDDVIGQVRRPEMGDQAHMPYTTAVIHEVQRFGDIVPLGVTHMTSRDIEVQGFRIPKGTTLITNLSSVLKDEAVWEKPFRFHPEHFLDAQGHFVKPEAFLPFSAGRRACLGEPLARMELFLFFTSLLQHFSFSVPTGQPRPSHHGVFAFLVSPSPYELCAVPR
Another assay has as its target Steroidogenic factor 1 (Homo sapiens, UniProt Q13285). Put plainly: Counterscreen for inverse agonists of the liver receptor homolog-1 (LRH-1; NR5A2): Luminescence-based cell-based high throughput dose response assay to identify inverse agonists of the Steroidogenic Factor 1 Nuclear Receptor (SF1; NR5A1). Format: functional.
Assay [2] addresses Nuclear receptor subfamily 5 group A member 2 (Homo sapiens, UniProt O00482). Format: functional, cell-based.
Assay [3] in a line: StAR promoter reporter inhibition counter-screen, dose response, counter-screen for LRH-1 inverse agonist project, cell-based, luminescence, luciferase reporter (AID 651969). Format: functional.
Assay [4] in a line: Shn3 3'UTR reporter inhibitors, dose response, cell-based, Clone20 osteoblasts, firefly luciferase, cherry-picked (AID 624132).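 Further: firefly luciferase luminescence from reporter carrying the Shn3 3'UTR in osteoblasts.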 It is filed as functional.
Assay [5] can be described thus: control 3'UTR Renilla luciferase suppression, dose response, counter-screen for Shn3 inhibitor project, cell-based, Clone20-Shn3RL, cherry-picked (AID 624133). It is filed as functional.
The nature of assay [6]: inhibitors of HIV Env-driven cell fusion, dose response, cherry-pick (AID 652057). It is filed as functional, cell-based.
Assay [7] is described as follows: inhibitors of clade B AD8 Env fusion, dose response, cell-based, cherry-pick (AID 652062).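 Further: luciferase signal from cell-cell fusion driven by HIV-1 clade B AD8 Env; potency is for inhibitors of fusion seen as a drop in luminescence.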 Format: functional.
In another assay the test system is HEK293. Put plainly: inhibitors of LMP1-driven NF-kB reporter, dose response, cell-based, HEK293, luciferase, cherry-pick (AID 588343). Format: functional. The conditions noted are these: Homo sapiens.
The nature of assay [8]: off-target signal loss in HeLa-CEM21 co-culture – HeLa F-luc CTL cells, cherry-picked, counter-screen for HIV-1 Env fusion inhibitor project, dose response (AID 652040).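 Further: potency for signal decrease marking cytotoxic or nonspecific inhibition.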 It is filed as functional, cell-based. Background: Counterscreens check selectivity or assay interference.
A short description of assay [9]: ZM109 Env clade C HIV-1 fusion inhibitors, dose response, HeLa effector, CEM target cells, luciferase, cherry-pick (AID 652058). Format: functional, cell-based.
Assay [10] can be described thus: MC4R antagonists, dose response, counter-screen for LGR2 antagonist project, cell-based, plate reader, cherry pick (AID 743444).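 Further: transfected HEK 293 cells stimulated with alpha-MSH peptide; potency of inhibitors of the alpha-MSH evoked signal.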 Format: functional.
For assay [11], the system named is Streptococcus sp. 'group A'. Put plainly: growth inhibition of control SK(-) GAS strain, dose response, counter-screen for streptokinase expression inhibitor project, luminescence, kanamycin, BacTiterGlo, confirmation (AID 1900). Format: functional, organism-based.
The nature of assay [12]: inhibitors of intracellular T. cruzi replication, confirmation, NIH3T3 host cells, beta-gal luminescence (AID 2044).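 Further: intracellular parasites grown in NIH/3T3 mouse fibroblasts as host cells; luminescent beta-galactosidase reporter signal from transgenic T. cruzi replicating inside host cells; inhibitors lower the luminescence signal.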 Format: functional, cell-based.
Another assay concerns Streptococcus. Put plainly: Group A Streptococcus viability loss, dose response, counter-screen for streptokinase expression inhibitor project, luminescence, BacTiterGlo (AID 1915).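 Further: potency for reduction of bacterial viability or growth.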 It is filed as functional, organism-based.
The next assay concerns the target T2, Streptokinase A (Streptococcus pyogenes serotype M1, UniProt P10520).
T2 sequence (P10520 whole entry): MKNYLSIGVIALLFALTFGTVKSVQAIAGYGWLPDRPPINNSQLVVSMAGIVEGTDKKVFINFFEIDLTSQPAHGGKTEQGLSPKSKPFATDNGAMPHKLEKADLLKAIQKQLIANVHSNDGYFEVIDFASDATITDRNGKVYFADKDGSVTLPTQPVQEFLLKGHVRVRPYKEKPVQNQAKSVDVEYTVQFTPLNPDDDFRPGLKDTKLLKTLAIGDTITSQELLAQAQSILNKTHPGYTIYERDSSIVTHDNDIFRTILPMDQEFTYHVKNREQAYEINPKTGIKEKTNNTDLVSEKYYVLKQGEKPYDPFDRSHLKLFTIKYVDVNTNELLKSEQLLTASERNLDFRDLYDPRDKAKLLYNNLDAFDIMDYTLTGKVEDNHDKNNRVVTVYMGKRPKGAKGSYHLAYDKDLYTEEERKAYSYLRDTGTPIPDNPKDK
As to the kind of experiment: S. pyogenes streptokinase expression inhibitors, potency, dose response, plasminogen activation absorbance, OD405 (AID 1914).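 Further: secreted streptokinase activity via plasminogen activation per viability signal from cell pellet.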 It is filed as functional, Streptococcus pyogenes M1 GAS.

The nature of assay [13]: cytotoxicity toward NIH3T3 fibroblasts, dose response, counter-screen, cell-based, ATP luminescence, mouse fibroblasts (AID 2010).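 Further: cells exposed to compound for about 90 hours before reading.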 It is filed as functional.
Another assay deals with Nonstructural protein 1 (Influenza A virus, UniProt Q194T2). Format: functional, Influenza A virus (A/California/07/2009(H1N1)).
Chain of Nonstructural protein 1 (Q194T2 whole entry): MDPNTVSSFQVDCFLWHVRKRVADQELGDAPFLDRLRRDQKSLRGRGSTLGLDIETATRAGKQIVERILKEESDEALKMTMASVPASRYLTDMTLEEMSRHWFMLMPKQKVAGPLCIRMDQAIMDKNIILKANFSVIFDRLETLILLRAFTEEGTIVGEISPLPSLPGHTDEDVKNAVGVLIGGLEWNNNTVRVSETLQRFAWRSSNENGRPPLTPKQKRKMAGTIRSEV
For the next assay, the target named is T3, Aminopeptidase N (Plasmodium falciparum FcB1/Columbia, UniProt O96935).
T3 sequence (O96935 whole entry): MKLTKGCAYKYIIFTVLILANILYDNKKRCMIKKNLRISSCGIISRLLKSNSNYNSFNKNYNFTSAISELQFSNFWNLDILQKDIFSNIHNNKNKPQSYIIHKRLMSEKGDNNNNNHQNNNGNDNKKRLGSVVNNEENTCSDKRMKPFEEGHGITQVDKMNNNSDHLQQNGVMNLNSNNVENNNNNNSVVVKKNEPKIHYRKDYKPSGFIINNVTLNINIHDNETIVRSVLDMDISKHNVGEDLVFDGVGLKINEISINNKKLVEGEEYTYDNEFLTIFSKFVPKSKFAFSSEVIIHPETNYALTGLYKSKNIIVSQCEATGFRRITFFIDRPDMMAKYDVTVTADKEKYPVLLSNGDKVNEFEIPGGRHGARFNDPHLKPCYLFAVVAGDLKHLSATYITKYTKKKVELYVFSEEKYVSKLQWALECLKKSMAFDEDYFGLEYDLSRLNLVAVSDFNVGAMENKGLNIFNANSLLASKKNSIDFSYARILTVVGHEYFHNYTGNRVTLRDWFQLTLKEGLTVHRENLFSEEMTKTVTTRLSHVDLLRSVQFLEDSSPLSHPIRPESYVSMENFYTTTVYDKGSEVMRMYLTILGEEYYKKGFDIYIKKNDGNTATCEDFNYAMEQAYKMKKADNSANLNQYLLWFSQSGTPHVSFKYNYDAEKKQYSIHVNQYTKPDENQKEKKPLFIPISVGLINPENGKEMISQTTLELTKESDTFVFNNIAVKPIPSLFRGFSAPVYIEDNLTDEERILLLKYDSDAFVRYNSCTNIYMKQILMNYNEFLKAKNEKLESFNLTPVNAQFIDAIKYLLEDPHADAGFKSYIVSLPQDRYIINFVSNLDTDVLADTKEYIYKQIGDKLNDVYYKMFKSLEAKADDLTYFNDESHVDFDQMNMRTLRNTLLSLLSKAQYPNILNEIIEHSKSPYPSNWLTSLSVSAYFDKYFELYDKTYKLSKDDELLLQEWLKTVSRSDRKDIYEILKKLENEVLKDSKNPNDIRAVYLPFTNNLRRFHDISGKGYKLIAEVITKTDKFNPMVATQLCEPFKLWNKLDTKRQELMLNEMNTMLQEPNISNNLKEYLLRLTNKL
Put plainly: P. falciparum M1AAP inhibitors, biochemical, fluorogenic H-Leu-NHMec substrate, 1536-well (AID 1445). The arrangement: species or system Plasmodium falciparum 3D7, 3D7.

Chain of Steroidogenic factor 1 (Q13285 whole entry): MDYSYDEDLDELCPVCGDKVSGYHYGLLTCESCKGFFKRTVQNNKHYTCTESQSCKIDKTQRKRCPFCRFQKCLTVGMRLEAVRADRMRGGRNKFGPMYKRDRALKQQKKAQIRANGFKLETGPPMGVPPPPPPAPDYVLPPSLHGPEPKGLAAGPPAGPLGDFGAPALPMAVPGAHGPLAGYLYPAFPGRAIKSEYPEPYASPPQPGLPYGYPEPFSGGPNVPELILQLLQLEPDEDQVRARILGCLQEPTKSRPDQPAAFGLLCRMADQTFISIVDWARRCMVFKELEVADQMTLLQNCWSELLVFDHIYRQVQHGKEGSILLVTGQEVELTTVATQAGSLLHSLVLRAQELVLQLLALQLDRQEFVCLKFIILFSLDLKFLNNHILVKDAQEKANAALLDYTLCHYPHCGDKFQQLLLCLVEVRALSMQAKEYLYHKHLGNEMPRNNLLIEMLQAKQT
Chain of Nuclear receptor subfamily 5 group A member 2 (O00482 whole entry): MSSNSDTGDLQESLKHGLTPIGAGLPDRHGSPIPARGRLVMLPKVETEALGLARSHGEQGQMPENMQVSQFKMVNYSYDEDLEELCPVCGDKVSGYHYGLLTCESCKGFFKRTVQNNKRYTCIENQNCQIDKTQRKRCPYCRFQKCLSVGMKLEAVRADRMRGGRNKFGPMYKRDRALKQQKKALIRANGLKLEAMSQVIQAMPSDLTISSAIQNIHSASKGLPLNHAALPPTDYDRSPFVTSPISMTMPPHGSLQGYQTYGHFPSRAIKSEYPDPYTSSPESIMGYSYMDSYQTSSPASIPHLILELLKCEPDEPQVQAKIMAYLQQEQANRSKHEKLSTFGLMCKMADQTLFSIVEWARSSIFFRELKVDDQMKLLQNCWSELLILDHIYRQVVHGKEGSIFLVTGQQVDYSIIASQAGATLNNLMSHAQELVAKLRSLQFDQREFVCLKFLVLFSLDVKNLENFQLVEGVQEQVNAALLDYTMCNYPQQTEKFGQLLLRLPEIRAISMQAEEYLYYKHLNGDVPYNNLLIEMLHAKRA
Chain of Cytochrome P450 2C19 (P33261 whole entry): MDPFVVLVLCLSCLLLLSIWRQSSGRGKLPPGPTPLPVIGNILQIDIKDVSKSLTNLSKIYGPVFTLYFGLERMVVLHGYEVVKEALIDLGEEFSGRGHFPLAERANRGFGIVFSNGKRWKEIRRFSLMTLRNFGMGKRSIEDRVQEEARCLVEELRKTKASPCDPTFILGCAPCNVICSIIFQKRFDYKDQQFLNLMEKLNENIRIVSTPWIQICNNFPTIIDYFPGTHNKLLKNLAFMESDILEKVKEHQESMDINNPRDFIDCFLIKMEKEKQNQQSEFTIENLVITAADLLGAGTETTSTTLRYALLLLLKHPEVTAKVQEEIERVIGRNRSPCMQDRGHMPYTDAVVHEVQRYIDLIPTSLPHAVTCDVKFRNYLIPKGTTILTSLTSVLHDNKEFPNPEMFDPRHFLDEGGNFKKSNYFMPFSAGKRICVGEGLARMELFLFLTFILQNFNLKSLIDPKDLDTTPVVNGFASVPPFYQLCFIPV

The AC50 is the concentration giving half of the maximal activity seen. What is called EC50 is the midpoint of the concentration-response curve. As to `O=C(CSc1nnc(-c2ccc(Cl)cc2Cl)n1C1CCCCC1)NC1CCS(=O)(=O)C1` (stereo unspecified), the AC50 on Cytochrome P450 2C19 was 39.8 µM (inconclusive); at Cytochrome P450 2D6 it was 35.5 µM (inconclusive). Moreover, the EC50 in assay [1] was 1.68 µM (active).

Broadly, the IC50 is the concentration needed to halve the response being measured. For `CCOc1cc(/C=N/n2nnnc2N)ccc1OCc1c(C)no[n+]1[O-]`, the IC50 was 2.22 µM (active) on Steroidogenic factor 1, 11.8 µM (inactive) in assay [2] and 35.9 µM (inactive) in assay [3].

With `Fc1ccccc1COc1ccc(Br)cc1CNCC1CCCO1` (stereo unspecified), the EC50 in assay [1] was 0.944 µM (active).

Regarding `O=C(CSc1nnc(-c2ccc(Cl)cc2Cl)n1C1CCCCC1)N1CCCC1`, the AC50 in [4] was > 70 µM (inactive); in assay [5] it was 23 µM (active). Also, the EC50 in assay [1] is 2.37 µM (active).

Turning to `CC[C@]1(C(=O)OC)[C@H]2C(=O)N(Cc3ccccc3)C(=O)[C@H]2[C@H]2CN=C(SCc3ccc(C#N)cc3)N21`, the AC50 is 0.709 µM (active) in assay [6]; 5.1 µM (active) in [7]; 4.97 µM (active) in the assay with HEK293; 1.45 µM (active) in [8]; 1.07 µM (active) in [9].

With `O=C(CN1CCOc2ccccc21)NCc1ccc(F)cc1`, in assay [10], the AC50 is 29.2 µM (active).

As to `Cc1ccc(-c2csc(NC(=O)c3ccc([N+](=O)[O-])o3)n2)cc1`, the IC50 on Steroidogenic factor 1 was 4.48 µM (active); in [2], 35.9 µM (inactive); in assay [3], 35.9 µM (inactive). The EC50 is 1.89 µM (active) in [11]; 0.37 µM (active) in assay [12]; > 150 µM (not active) with Streptococcus; 62.4 µM (active) at Streptokinase A; 12.2 µM (active) in [13].

As to `CN1c2ccccc2N(C)C1(C)c1cccc2ccccc12`, the IC50 on Nonstructural protein 1 was 39.3 µM (active). Also, the EC50 was 0.544 µM (active) in assay [12] and > 30 µM (not active) in [13].

As for `Cc1nnc(SCC(=O)Nc2ccc(Br)cc2)n(N)c1=O`, the IC50 at Steroidogenic factor 1 is 20.1 µM (inactive); in [2] it was 35.9 µM (inactive); in assay [3], 35.9 µM (inactive).

Regarding `CC(=O)Nc1cc(-c2cccc(F)c2)cn2c(-c3ccc(S(C)(=O)=O)cc3)cnc12`, the results for the IC50 (at Steroidogenic factor 1; in assay [2]; in assay [3]) were 2.36 µM (active), 5.75 µM (active) and 31.1 µM (inactive), respectively.

`O=[N+]([O-])c1ccc(C[n+]2cccc3ccc4cccnc4c32)cc1`: the IC50 on Nonstructural protein 1 is 7.75 µM (active).

On to `Cc1ccc(NC(=O)CSc2sc3c(O)cc(O)nc3c2C#N)c(F)c1`, for which the IC50 (at Steroidogenic factor 1; in assay [2]; in assay [3]) was 35.9 µM (inactive) each time.

Consider `Cc1cccc(CN2C(=O)CSc3ccc(C(=O)NC4CC4)cc32)c1`, for which the IC50 on Steroidogenic factor 1 was 1.21 µM (active); in [2], 1.89 µM (active); in assay [3], 20.1 µM (inactive).

For the compound `CCC(O)(c1ccc(OC)cc1)C(CN1CCOCC1)c1ccccc1` (stereo unspecified), in assay [1], the EC50 is 5.96 µM (active).

Take `Cc1nnc(SCC(=O)N2CCC(c3noc4ccc(F)cc34)CC2)s1`: the AC50 in the assay with HEK293 is 9.92 µM (active). Besides, the IC50 on Aminopeptidase N is 39.1 µM (active).

`COc1cc(O)c(C(CCN2CCN(c3ccccc3)CC2)c2ccc(N(C)C)cc2)c(OC)c1` (stereo unspecified): on Nonstructural protein 1, the IC50 is 18.2 µM (active).

`COc1ccccc1N1CCN(CCCNC(=O)Nc2ccccc2)CC1`: the EC50 in assay [1] is 1.88 µM (active).

With `C=CCN1CCN(C(c2cccc(OC)c2OC)c2nnnn2CCC(C)C)CC1` (stereo unspecified), the concentration for a half-maximal effect (EC50) in assay [1] was 1.68 µM (active).
